From the NIST ThermoML archive (doi:10.1016/j.jct.2016.10.033)

Experiment: refractive index (Na D-line) (dimensionless); xn = mol fraction of the nth substance listed
Conditions: 103 kPa, Liquid, Standard Abbe refractometry

C=C[Si](C)(OCC)OCC [methylvinyldiethoxysilane] + CO[Si](C)(OC)c1ccccc1
refractive index
Conditions	298.15 K	303.15 K	308.15 K	313.15 K	318.15 K
x2 = 0	1.39751	1.39501	1.39249	1.38997	1.38742
x2 = 0.05	1.40161	1.39911	1.3966	1.39407	1.39153
x2 = 0.1001	1.40569	1.40322	1.40071	1.39819	1.39567
x2 = 0.1499	1.40975	1.40729	1.40481	1.4023	1.39979
x2 = 0.2001	1.41382	1.41135	1.40888	1.40639	1.40391
x2 = 0.2501	1.41792	1.41547	1.413	1.41052	1.40804
x2 = 0.3	1.42192	1.41948	1.41702	1.41456	1.41207
x2 = 0.3499	1.42595	1.42352	1.42108	1.41864	1.41615
x2 = 0.4	1.42999	1.42755	1.42511	1.42265	1.4202
x2 = 0.4501	1.43404	1.43161	1.42919	1.42673	1.4243
x2 = 0.5	1.43801	1.43558	1.43316	1.43072	1.42827
x2 = 0.5499	1.44203	1.43961	1.43721	1.43477	1.43237
x2 = 0.6	1.44606	1.44365	1.44126	1.43884	1.43645
x2 = 0.65	1.44994	1.44754	1.44513	1.44272	1.4403
x2 = 0.6999	1.45398	1.45159	1.44922	1.44683	1.44442
x2 = 0.75	1.45797	1.45558	1.45323	1.45086	1.44847
x2 = 0.7999	1.46196	1.45958	1.45722	1.45484	1.45248
x2 = 0.85	1.46589	1.46352	1.46116	1.45878	1.45641
x2 = 0.8998	1.46999	1.46763	1.46528	1.4629	1.46054
x2 = 0.9499	1.47377	1.47142	1.46907	1.46672	1.46435
